What was measured:
Human Factor XIa = Human Factor XIa (Homo sapiens, UniProt P03951); test: Inhibition of human coagulation factor XIa by absorptiometry (substrate S-2366); assay type: biochemical; details: 37° C., 20 min incubation, absorbance 405 nm; read-out: hFXIa IC50
Protocol: Example 50: Detection of the Biological Activity of the Compounds of the Present Invention on the Inhibition of Human Coagulation Factor XIa by Absorptiometry
Buffer: 145 mM NaCl, 5 mM KCl, 1 mg/mL PEG 8000, 30 mM HEPES, pH 7.4
10 mM test compound dissolved in 100% DMSO was diluted with 100% DMSO to […]; 98 μL of FXIa enzyme solution (77.7 ng/mL) was added to each well of a 96-well plate, and 98 μL of buffer was added to the blank wells. 2 μL of compounds of different concentrations were added, and the blank and control wells were added with DMSO instead. They were mixed with a shaker, and incubated at 37° C. for 20 minutes.
Finally, 100 μL of 800 μM substrate was added to each well, and its absorbance was measured at 405 nm.

human plasma = test: Anticoagulant effect on human plasma in vitro (APTT determination); assay type: biochemical; details: for aPTT EC1.5×: concentration giving APTT of 1.5× blank control; for aPTT EC2×: concentration giving APTT of 2× blank control
Protocol: Example 51: Determination of the Anticoagulant Effect of the Compounds of the Present Invention on Human Plasma In Vitro
Plasma: Human blood was collected in a vacuum blood collection tube containing 3.2% sodium citrate (volume ratio 1:9), centrifuged at 3000 rpm for 10 min at room temperature, and the plasma was collected, divided into EP tubes, and stored at −80° C.
Reagents: APTT assay kit (Activated partial thromboplastin time assay kit, mindray), calcium chloride solution.
Instrument: coagulation meter (mindray, C2000-A)
The frozen human plasma in aliquots was thawed at room temperature and mixed well. 10 mM test compound dissolved in 100% DMSO was diluted with 100% DMSO to 1500, 750, 375, 187.5, 93.75, 46.88, 23.44, 11.72 μM. 98 μL of human plasma was added to a 1.5 mL EP tube, then 2 μL of compounds of different concentrations were added, and 2 μL of 100% DMSO was added for the blank group. They were incubated under a water bath at 37° C. for 10 min, and the samples were placed in the corresponding position of the coagulation analyzer to conduct APTT determination of the compounds.
Curve fitting was performed with GraphPad Prism software, and EC1.5× and EC2× values were calculated respectively, i.e., the concentrations of the compounds corresponding to the APTT of 1.5× and 2× blank control group.

Sequence of Human Factor XIa (P03951 388-625 limits assumed): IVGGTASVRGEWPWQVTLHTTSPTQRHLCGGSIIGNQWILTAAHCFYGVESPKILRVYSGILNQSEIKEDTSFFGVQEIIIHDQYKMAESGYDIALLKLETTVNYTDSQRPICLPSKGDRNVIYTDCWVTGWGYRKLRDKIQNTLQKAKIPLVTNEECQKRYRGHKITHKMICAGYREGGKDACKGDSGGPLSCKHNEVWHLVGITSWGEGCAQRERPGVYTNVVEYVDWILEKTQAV
Sequence of Human Factor XIa (P03951 19-387 partner limits assumed): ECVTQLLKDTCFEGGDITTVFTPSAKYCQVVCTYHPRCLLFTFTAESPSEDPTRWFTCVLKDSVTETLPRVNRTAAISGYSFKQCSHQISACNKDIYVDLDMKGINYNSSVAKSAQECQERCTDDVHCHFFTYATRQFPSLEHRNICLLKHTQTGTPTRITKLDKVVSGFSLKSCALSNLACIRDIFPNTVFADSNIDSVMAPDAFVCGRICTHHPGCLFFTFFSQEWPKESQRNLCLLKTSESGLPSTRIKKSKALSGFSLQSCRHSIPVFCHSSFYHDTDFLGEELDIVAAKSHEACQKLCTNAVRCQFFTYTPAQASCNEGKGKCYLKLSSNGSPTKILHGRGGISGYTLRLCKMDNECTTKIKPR

SMILES | IC50 (Human Factor XIa) [nM] | aPTT EC1.5× (human plasma) [µM] | aPTT EC2× (human plasma) [µM]
COc1nn(C(Cc2cccc(C)c2)C(=O)Nc2ccc(C(=O)O)cc2)c(=O)cc1-c1cc(Cl)ccc1C(C)=O (stereo not drawn) [Example 8, 4 (2-(4-(2-acetyl-5-chlorophenyl)-3-methoxy-6-oxopyridazine-1(6H)-yl)-3-(m-tolyl)propanamido)benzoic acid] | 30.3 | 2.67 | >15
COc1nn(C(Cc2ccc(N3CCN(C(C)C)CC3=O)cc2)C(=O)Nc2ccc(C(=O)O)cc2)c(=O)cc1-c1cc(Cl)ccc1C(C)=O (stereo not drawn) [Example 4, 4-(2-(4-(2-acetyl-5-chlorophenyl)-3-methoxy-6-oxopyridazin-1(6H)-yl)-3-(4-(4-isopropyl-2-oxopiperazin-1-yl)phenyl)propanamido)benzoic acid] | 32.6 | 2.171 | 11.938
CC(=O)c1ccc(Cl)cc1-c1cc(=O)n([C@@H](Cc2ccccc2)C(=O)Nc2ccc(C(=O)O)cc2)nc1OCC1CC1 [Example 20, (S)-4-(2-(4-(2-acetyl-5-chlorophenyl)-3-(cyclopropylmethoxy)-6-oxopyridazin-1(6H)-yl)-3-phenylpropanamido)benzoic acid] | 20.6 | 2.418 | 28.32

Stronger by IC50 (Human Factor XIa), values ahead:

IC50 (Human Factor XIa) [nM] | SMILES | aPTT EC1.5× (human plasma) [µM] | aPTT EC2× (human plasma) [µM]
19.9 | COc1nn(C(Cc2ccc(NC(=O)C3CC3)cc2)C(=O)Nc2ccc(C(=O)O)cc2)c(=O)cc1-c1cc(Cl)ccc1C(C)=O (stereo not drawn) [Example 33, 4-(2-(4-(2-acetyl-5-chlorophenyl)-3-methoxy-6-oxopyridazin-1(6H)-yl)-3-(4-(cyclopropaneformamido)phenyl)propanamido)benzoic acid] | 1.527 | 7.691
16.4 | COc1nn(C(Cc2ccc(NC(=O)C3CCC3)cc2)C(=O)Nc2ccc(C(=O)O)cc2)c(=O)cc1-c1cc(Cl)ccc1C(C)=O (stereo not drawn) [Example 39, 4-(2-(4-(2-acetyl-5-chlorophenyl)-3-methoxy-6-oxopyridazin-1(6H)-yl)-3-(4-(cyclobutaneformamido)phenyl)propanamido)benzoic acid] | 1.638 | 6.859

Reference: US20230027295A1, “FXIA INHIBITORS AND PREPARATION METHOD THEREFOR AND PHARMACEUTICAL USE THEREOF” (Shenzhen Salubris Pharmaceuticals Co., Ltd., priority 2019, published 2023)
